The record followed here is ChEMBL document CHEMBL1146036, “Structural determinants of opioid activity in derivatives of 14-aminomorphinones: effect of substitution in the aromatic ring of cinnamoylaminomorphinones and codeinones” (J Med Chem, 2006).

For test [1], the system named is Mus musculus. The test can be described thus: Agonist activity in sc dosed mouse by tail flick assay. The test is classed as functional. On the technique in general: In hot-plate and tail-flick tests a longer latency is read as antinociception.
Test [2] relates to Mus musculus. The test can be described thus: Agonist activity in mouse by phenylquinone abdominal stretching assay at 0.3 mg/kg, sc. The following applies: Abdomen, route subcutaneous. The test is classed as functional.
Test [3] deals with Mus musculus. The test can be described thus: Antagonist activity against morphine-induced antinociception in sc dosed mouse by tail flick assay. The test is classed as functional.
Test [4] relates to Mus musculus. The test can be described thus: Agonist activity in mouse by hot water tail withdrawal assay at 32 mg/kg, sc. The test is classed as functional. The following applies: route subcutaneous.
Test [5] relates to Mus musculus. Kind of test: Antagonist activity against morphine-induced antinociception in sc dosed mouse by hot water tail withdrawal assay at 32 mg/kg, sc. The test is classed as functional. The arrangement: scale not given: the % may be the effect or the level left. The following applies: route subcutaneous.
Test [6] addresses T1, Mu-type opioid receptor (Homo sapiens, UniProt P35372). Kind of test: Displacement of [3H]DAMGO from human recombinant MOR expressed in CHO cells. The test is classed as cell-based.
For test [7], the target named is T2, Delta-type opioid receptor (Homo sapiens, UniProt P41143). The test can be described thus: Displacement of [3H]Cl-DPDPE from human recombinant DOR expressed in CHO cells. The test is classed as cell-based. Background: Displacement assays read how much labelled ligand stays bound in the presence of the test substance.
T2 sequence (P41143 whole entry): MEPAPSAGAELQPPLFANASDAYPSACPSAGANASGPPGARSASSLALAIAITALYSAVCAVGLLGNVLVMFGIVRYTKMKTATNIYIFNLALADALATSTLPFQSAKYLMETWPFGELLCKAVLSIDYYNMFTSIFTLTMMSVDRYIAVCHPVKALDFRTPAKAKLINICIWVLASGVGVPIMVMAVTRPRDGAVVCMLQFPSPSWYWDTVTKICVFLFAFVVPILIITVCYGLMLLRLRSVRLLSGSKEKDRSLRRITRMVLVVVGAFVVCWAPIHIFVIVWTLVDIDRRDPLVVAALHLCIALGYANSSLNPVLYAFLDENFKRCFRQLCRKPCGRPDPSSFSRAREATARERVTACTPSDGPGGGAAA
Test [8] addresses T3, Kappa-type opioid receptor (Homo sapiens, UniProt P41145). Kind of test: biochemical. Format: cell-based, CHO.
Description: Displacement of [3H]U-69593 from human recombinant KOR expressed in CHO cells
Test [9] concerns the target T1, Mu-type opioid receptor. The test can be described thus: Reversal of stimulation of [35S]GTP-gamma-S binding to human recombinant MOR transfected in CHO cells relative to DAMGO. The test is classed as functional, cell-based. On the technique in general: GTPγS resists hydrolysis and so accumulates on activated G proteins.
For test [10], the system named is Mus musculus. The test can be described thus: Agonist activity in mouse by phenylquinone abdominal stretching assay at 30 mg/kg, sc. Format: functional. As to conditions: Abdomen, route subcutaneous.
In test [11] the target is T2, Delta-type opioid receptor. The following applies: CHO.
Description: Reversal of stimulation of [35S]GTP-gamma-S binding to human recombinant DOR transfected in CHO cells relative to DPDPE
Test [12] has as its target T3, Kappa-type opioid receptor. As to conditions: CHO.
Description: Reversal of stimulation of [35S]GTPgammaS binding to human recombinant KOR transfected in CHO cells relative to U69593

T1 sequence (P35372 whole entry): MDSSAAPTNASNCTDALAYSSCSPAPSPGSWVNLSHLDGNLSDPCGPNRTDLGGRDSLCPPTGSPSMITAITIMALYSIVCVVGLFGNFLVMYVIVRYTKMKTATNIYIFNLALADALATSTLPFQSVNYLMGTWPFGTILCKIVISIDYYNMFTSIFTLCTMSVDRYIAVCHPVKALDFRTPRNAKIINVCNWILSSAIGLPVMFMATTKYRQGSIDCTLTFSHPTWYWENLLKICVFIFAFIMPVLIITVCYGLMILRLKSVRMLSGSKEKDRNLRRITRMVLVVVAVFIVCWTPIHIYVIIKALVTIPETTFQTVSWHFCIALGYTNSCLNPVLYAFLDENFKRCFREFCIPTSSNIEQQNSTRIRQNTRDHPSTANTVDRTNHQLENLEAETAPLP
T3 sequence (P41145 whole entry): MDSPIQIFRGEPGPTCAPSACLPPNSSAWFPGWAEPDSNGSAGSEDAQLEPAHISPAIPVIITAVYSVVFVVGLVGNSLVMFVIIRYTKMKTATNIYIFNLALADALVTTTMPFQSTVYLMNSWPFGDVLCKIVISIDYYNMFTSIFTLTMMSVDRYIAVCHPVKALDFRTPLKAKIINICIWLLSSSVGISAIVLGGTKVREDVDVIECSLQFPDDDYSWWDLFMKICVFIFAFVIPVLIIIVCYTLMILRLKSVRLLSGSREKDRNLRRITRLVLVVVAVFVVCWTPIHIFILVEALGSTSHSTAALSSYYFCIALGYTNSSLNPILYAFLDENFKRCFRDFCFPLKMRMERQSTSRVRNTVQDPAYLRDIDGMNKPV

The term ED50 denotes the dose that gives a 50% effect, or the effect in half of the subjects. One may read the inhibition in vivo as the percentage by which the read-out fell short of the control. In the test on Mus musculus [1], `O=C(/C=C/c1ccccc1)N[C@@]12CCC(=O)[C@@H]3Oc4c(O)ccc5c4[C@@]31CCN(CC1CC1)[C@@H]2C5` yielded an ED50 greater than 30 mg/kg. In the test with Mus musculus [2], this compound gave an inhibition in vivo at 0.3 mg/kg of 66%. In addition, in the test with Mus musculus [3], the AD50 turned out to be 1.3 mg/kg. The Activity with Mus musculus [4] came to 0%; in the test with Mus musculus [5], 40%.

In general, Ki refers to the equilibrium dissociation constant of an inhibitor or competing ligand from its target. Regarding `O=C(/C=C/c1ccc(Cl)cc1)N[C@@]12CCC(=O)[C@@H]3Oc4c(O)ccc5c4[C@@]31CCN(CC1CC1)[C@@H]2C5` [CLOCINNAMOX], the Ki at Mu-type opioid receptor [6] worked out at 2.98 nM; in test [7], 2.7 nM; in test [8] it was 1.4 nM. For the same compound, the Ke on Mu-type opioid receptor [9] turned out to be 0.53 nM; in [11], 0.19 nM; in [12], 0.1 nM. In the test on Mus musculus [1], this compound displayed an ED50 greater than 30 mg/kg. This compound showed an inhibition in vivo at 30 mg/kg in the test with Mus musculus [10] of 69%. The AD50 in the test with Mus musculus [3] was determined as 0.12 mg/kg. The Activity in the test on Mus musculus [4] is reported as 0%; in the test with Mus musculus [5] it was greater than 90%.
